Data: PubChem BioAssay (NCI)
Several values for one entry are separate records, joined by “and”; a condition that tells them apart may be missing. Identical values can stand only once.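 Method: 48-hour compound exposure of cells in 96-well plates, five concentrations, linear interpolation of endpoints. GI50 = concentration required for 50% inhibition of growth. TGI is the concentration that stops growth completely.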

Key:
Test in all cases: NCI tumour cell line growth inhibition, 48 h
HCT-116 colon = test system: HCT-116 colon
MALME-3M melanoma = test system: MALME-3M melanoma
NCI-H226 lung = test system: NCI-H226 lung
OVCAR-8 ovarian = test system: OVCAR-8 ovarian
RPMI-8226 leukemia = test system: RPMI-8226 leukemia
SK-OV-3 ovarian = test system: SK-OV-3 ovarian
SNB-19 CNS = test system: SNB-19 CNS
UACC-62 melanoma = test system: UACC-62 melanoma
RXF 393 renal = test system: RXF 393 renal
DU-145 prostate = test system: DU-145 prostate

CC1=C2CCCC2C/C(=N/Nc2ccc([N+](=O)[O-])cc2[N+](=O)[O-])CC1 (centres undefined)
TGI (HCT-116 colon): > 100 µM
TGI (MALME-3M melanoma): > 100 µM
TGI (NCI-H226 lung): > 100 µM
TGI (OVCAR-8 ovarian): > 100 µM
TGI (RPMI-8226 leukemia): > 100 µM
TGI (SK-OV-3 ovarian): > 100 µM
TGI (SNB-19 CNS): > 100 µM
TGI (UACC-62 melanoma): > 100 µM

CC1(Sc2ccccc2)CN(Cc2ccccc2)C1=O (centres undefined)
TGI (HCT-116 colon): > 100 µM
TGI (NCI-H226 lung): > 100 µM
TGI (OVCAR-8 ovarian): > 100 µM
TGI (RPMI-8226 leukemia): > 100 µM
TGI (RXF 393 renal): > 100 µM
TGI (SK-OV-3 ovarian): > 100 µM
TGI (SNB-19 CNS): > 100 µM
TGI (UACC-62 melanoma): > 100 µM

CC(=O)/C(=C\c1ccco1)C(=O)Nc1ccccc1
TGI (HCT-116 colon): > 100 µM
TGI (MALME-3M melanoma): > 100 µM
TGI (OVCAR-8 ovarian): > 100 µM
TGI (RPMI-8226 leukemia): > 100 µM
TGI (RXF 393 renal): > 100 µM
TGI (SK-OV-3 ovarian): > 100 µM
TGI (SNB-19 CNS): > 100 µM
TGI (UACC-62 melanoma): > 100 µM

NCC1(N2CCOCC2)C2CCCC21CO (centres undefined)
TGI (HCT-116 colon): > 100 µM
TGI (MALME-3M melanoma): > 100 µM
TGI (NCI-H226 lung): > 100 µM
TGI (OVCAR-8 ovarian): > 100 µM
TGI (RPMI-8226 leukemia): > 100 µM
TGI (RXF 393 renal): > 100 µM
TGI (SK-OV-3 ovarian): > 100 µM
TGI (SNB-19 CNS): > 100 µM

COC(=O)[C@@H]1CSC(=S)N1C(=O)C[C@H]1CC=CC[C@H]1CC(=O)Sc1ccccc1
TGI (HCT-116 colon): 30.8 µM
TGI (MALME-3M melanoma): 56.7 µM
TGI (NCI-H226 lung): 47.2 µM
TGI (OVCAR-8 ovarian): 50.6 µM
TGI (RPMI-8226 leukemia): 61.7 µM
TGI (RXF 393 renal): 30.4 µM
TGI (SK-OV-3 ovarian): 50 µM
TGI (SNB-19 CNS): 34.8 µM
TGI (UACC-62 melanoma): 38.3 µM

CC(=O)[O][Pb]([O]C(C)=O)([c]1ccccc1)[c]1ccccc1
GI50 (HCT-116 colon): 4.81 µM
TGI (HCT-116 colon): > 59.1 µM
GI50 (MALME-3M melanoma): > 100 µM
TGI (MALME-3M melanoma): > 100 µM
GI50 (NCI-H226 lung): 64.2 µM
TGI (NCI-H226 lung): > 100 µM
GI50 (OVCAR-8 ovarian): 7.15 µM
TGI (OVCAR-8 ovarian): > 100 µM
GI50 (RPMI-8226 leukemia): 4.12 µM
TGI (RPMI-8226 leukemia): > 100 µM
GI50 (RXF 393 renal): 1.41 µM
TGI (RXF 393 renal): 5.69 µM
GI50 (SK-OV-3 ovarian): 28.1 µM
TGI (SK-OV-3 ovarian): > 100 µM
GI50 (SNB-19 CNS): 23.8 µM
TGI (SNB-19 CNS): 46.6 µM
GI50 (UACC-62 melanoma): 3.88 µM
TGI (UACC-62 melanoma): 31.1 µM

O=C(CCn1[nH]c(=O)c(Cl)c(Cl)c1=O)NOCCCc1ccccc1
TGI (HCT-116 colon): > 100 µM
TGI (MALME-3M melanoma): > 100 µM
TGI (NCI-H226 lung): > 100 µM
TGI (OVCAR-8 ovarian): > 100 µM
TGI (RPMI-8226 leukemia): > 100 µM
TGI (SNB-19 CNS): > 100 µM
TGI (UACC-62 melanoma): > 100 µM

O=C1C/C(=C/c2ccc(/C=C3/CC(=O)N(c4cccc(Br)c4)C3=O)cc2)C(=O)N1c1cccc(Br)c1
TGI (HCT-116 colon): > 100 µM
TGI (MALME-3M melanoma): > 100 µM
TGI (NCI-H226 lung): > 100 µM
TGI (OVCAR-8 ovarian): > 100 µM
TGI (RPMI-8226 leukemia): > 100 µM
TGI (RXF 393 renal): 93.4 µM
TGI (SK-OV-3 ovarian): > 100 µM
TGI (SNB-19 CNS): > 100 µM
TGI (UACC-62 melanoma): > 100 µM

CC1(C)CCC2(C(=O)OC3OC(CO)C(O)C(O)C3O)CC[C@]3(C)C(=CCC4C5(C)CC[C@H](OC6OC(C(=O)O)C(O)C(O)C6O)C(C)(C)C5CCC43C)C2C1 (some centres undefined)
GI50 (HCT-116 colon): 1.12 µM
TGI (HCT-116 colon): 2.38 µM
GI50 (NCI-H226 lung): 1.49 µM
TGI (NCI-H226 lung): 6.31 µM
GI50 (OVCAR-8 ovarian): 4.28 µM
TGI (OVCAR-8 ovarian): 18.1 µM
GI50 (RPMI-8226 leukemia): 0.776 µM
TGI (RPMI-8226 leukemia): 10.2 µM
GI50 (RXF 393 renal): 1.65 µM
TGI (RXF 393 renal): > 50 µM
GI50 (SNB-19 CNS): 1.44 µM
TGI (SNB-19 CNS): 8.39 µM
GI50 (UACC-62 melanoma): 0.887 µM
TGI (UACC-62 melanoma): 1.92 µM

Cc1ccc(C(=O)Nc2ccc(S(=O)(=O)O)c3cc(S(=O)(=O)O)cc(S(=O)(=O)O)c23)cc1NC(=O)c1cccc(N)c1
TGI (MALME-3M melanoma): > 100 µM
TGI (NCI-H226 lung): > 100 µM
TGI (OVCAR-8 ovarian): > 100 µM
TGI (RXF 393 renal): > 100 µM
TGI (SK-OV-3 ovarian): > 100 µM
TGI (SNB-19 CNS): > 100 µM
TGI (UACC-62 melanoma): > 100 µM

CCC[CH2][Sn]([CH2]CCC)([O]C(C)=O)[O]C(C)=O
GI50 (HCT-116 colon): 1.56 µM
TGI (HCT-116 colon): 3.26 µM
GI50 (MALME-3M melanoma): 0.994 µM
TGI (MALME-3M melanoma): 2.36 µM
GI50 (NCI-H226 lung): 1.53 µM
TGI (NCI-H226 lung): 3.01 µM
GI50 (OVCAR-8 ovarian): 1.9 µM
TGI (OVCAR-8 ovarian): 4.6 µM
GI50 (RPMI-8226 leukemia): 0.321 µM
TGI (RPMI-8226 leukemia): 2.11 µM
GI50 (RXF 393 renal): 0.195 µM
TGI (RXF 393 renal): 0.654 µM
GI50 (SK-OV-3 ovarian): 1.93 µM
TGI (SK-OV-3 ovarian): 3.95 µM
GI50 (SNB-19 CNS): 1.14 µM
TGI (SNB-19 CNS): 2.35 µM
GI50 (UACC-62 melanoma): 1.09 µM
TGI (UACC-62 melanoma): 2.37 µM

O=C(NCCCCCCNC(=O)c1cccc2ccccc12)c1cccc2ccccc12
TGI (HCT-116 colon): 53.9 µM
TGI (MALME-3M melanoma): > 100 µM
TGI (NCI-H226 lung): 53 µM
TGI (OVCAR-8 ovarian): > 100 µM
TGI (RPMI-8226 leukemia): > 100 µM
TGI (RXF 393 renal): 23.8 µM
TGI (SK-OV-3 ovarian): 56.9 µM
TGI (UACC-62 melanoma): > 100 µM

CS(=O)(=O)CC1=Nc2nnc(CCCCCCCc3nnc4n3C(=O)C(CS(C)(=O)=O)=N4)n2C1=O
TGI (HCT-116 colon): > 100 µM
TGI (MALME-3M melanoma): > 100 µM
TGI (NCI-H226 lung): > 100 µM
TGI (OVCAR-8 ovarian): > 100 µM
TGI (RPMI-8226 leukemia): > 100 µM
TGI (RXF 393 renal): > 100 µM
TGI (SK-OV-3 ovarian): > 100 µM
TGI (SNB-19 CNS): > 100 µM
TGI (UACC-62 melanoma): > 100 µM

C=C1C(=O)O[C@@H]2C1CC(=O)C(C)CC/C=C(\C)CCC[C@H](C)[C@H]2OC(C)=O (some centres undefined)
GI50 (DU-145 prostate): 15 µM
TGI (DU-145 prostate): 31.7 µM
GI50 (HCT-116 colon): 1.62 µM
TGI (HCT-116 colon): 3.62 µM
GI50 (NCI-H226 lung): 15.1 µM
TGI (NCI-H226 lung): 30.5 µM
GI50 (OVCAR-8 ovarian): 17.9 µM
TGI (OVCAR-8 ovarian): 41.1 µM
GI50 (RPMI-8226 leukemia): 3.99 µM
TGI (RPMI-8226 leukemia): 19 µM
GI50 (RXF 393 renal): 7.9 µM
TGI (RXF 393 renal): 24.4 µM
GI50 (SK-OV-3 ovarian): 17 µM
TGI (SK-OV-3 ovarian): 34.1 µM
GI50 (SNB-19 CNS): 25.5 µM
TGI (SNB-19 CNS): > 100 µM
GI50 (UACC-62 melanoma): 11.6 µM
TGI (UACC-62 melanoma): 24.5 µM

O=C1c2ccccc2C(=O)N1CC1(C(=O)O)NCCS1(=O)=O (centres undefined)
TGI (HCT-116 colon): > 100 µM
TGI (MALME-3M melanoma): > 100 µM
TGI (NCI-H226 lung): > 100 µM
TGI (OVCAR-8 ovarian): > 100 µM
TGI (RPMI-8226 leukemia): > 100 µM
TGI (RXF 393 renal): > 100 µM
TGI (SK-OV-3 ovarian): > 100 µM
TGI (SNB-19 CNS): > 100 µM
TGI (UACC-62 melanoma): > 100 µM

CN(C)c1ccc2c(NCCCCCCNc3ccnc4cc(N(C)C)ccc34)ccnc2c1
TGI (HCT-116 colon): > 100 µM
TGI (MALME-3M melanoma): 12.9 µM
TGI (OVCAR-8 ovarian): 20.5 µM
TGI (RXF 393 renal): 38.4 µM
TGI (SK-OV-3 ovarian): > 100 µM
TGI (SNB-19 CNS): 16.4 µM
TGI (UACC-62 melanoma): > 100 µM

CCCC(O)[C@@H](O)c1ccc2c(c1O)C(=O)c1c(OC)cccc1C2=O (some centres undefined)
TGI (HCT-116 colon): > 100 µM
TGI (MALME-3M melanoma): 90.3 µM
TGI (NCI-H226 lung): > 100 µM
TGI (OVCAR-8 ovarian): > 100 µM
TGI (RPMI-8226 leukemia): 38.2 µM
TGI (SK-OV-3 ovarian): > 100 µM
TGI (SNB-19 CNS): > 100 µM
TGI (UACC-62 melanoma): 61.8 µM

CCc1ccc(NCc2cc(OC)c(OC)c(OC)c2)cc1
TGI (DU-145 prostate): > 100 µM and 19.5 µM
TGI (HCT-116 colon): 10.2 µM and 27.4 µM
TGI (MALME-3M melanoma): 30.8 µM and 35.6 µM
TGI (NCI-H226 lung): > 85 µM
GI50 (OVCAR-8 ovarian): 0.687 µM and 1.45 µM
TGI (OVCAR-8 ovarian): 43.6 µM and 48.1 µM
TGI (RPMI-8226 leukemia): 40.7 µM and 52 µM
GI50 (SK-OV-3 ovarian): 0.315 µM and 0.152 µM
TGI (SK-OV-3 ovarian): 9.02 µM and 16.9 µM
GI50 (SNB-19 CNS): 1.14 µM
TGI (SNB-19 CNS): > 100 µM
GI50 (UACC-62 melanoma): 0.22 µM and 0.105 µM
TGI (UACC-62 melanoma): 83.1 µM and > 85.3 µM

Cc1ccc2[nH]c(C(=O)NN3C(=O)CSC34CCCCC4C)c(-c3ccccc3)c2c1 (centres undefined)
GI50 (DU-145 prostate): 18.2 µM
TGI (DU-145 prostate): 44.1 µM
GI50 (HCT-116 colon): 14.5 µM
TGI (HCT-116 colon): 34.2 µM
GI50 (MALME-3M melanoma): 17.3 µM
TGI (MALME-3M melanoma): 35.6 µM
GI50 (NCI-H226 lung): 17.5 µM
TGI (NCI-H226 lung): 34.2 µM
GI50 (OVCAR-8 ovarian): 17.2 µM
TGI (OVCAR-8 ovarian): 35.6 µM
GI50 (RPMI-8226 leukemia): 13.8 µM
TGI (RPMI-8226 leukemia): 35.2 µM
GI50 (SK-OV-3 ovarian): 21.4 µM
TGI (SK-OV-3 ovarian): 47.1 µM
GI50 (SNB-19 CNS): 19.2 µM
TGI (SNB-19 CNS): 42.6 µM
GI50 (UACC-62 melanoma): 12.8 µM
TGI (UACC-62 melanoma): 26.8 µM
